Consider four molecules from patent US20150030593A1, “COMPOSITIONS OF PENETRATION-ENHANCED TARGETING PROTEINS AND METHODS OF USE” (PERMEON BIOLOGICS, INC., priority 2013, published 2015).

Holding throughout (assay type): cell-based
Test [1] has as its system MDA-MB-468 (Her2^Low) cells. Kind of test: Flow cytometry detection of internalized GFP protein (Example 4). The note with it: 1 μM, 2 hours, serum free media. The procedure: These two types of cells express different levels of Her2 protein (FIG. 8). […] MDA-MB-468 cells express very low levels of Her2 (referred to as Her2^Low) while AU565 cells express high levels of Her2 (referred to as Her2^high).
The media were replaced with serum free media containing 1 μM of a protein listed below, and incubated for 2 hours. Cells were washed 3×PBS, trypsinized, fixed with 4% PFA, washed with PBS and then analyzed by flow cytometry with detection of GFP.
Results: Flow cytometry analysis is indicative of the amount of protein internalized into the cells. FIGS. 9A and 9B show the flow cytometry data obtained for different tested samples at various conditions. The median fluorescence values obtained from the flow cytometry peak minus the median fluorescence values of untreated cells (background fluorescence) are shown in FIGS. 10A and 10B. See also Table 7. The first column indicates identifies the GFP-component of the construct used for the particular sample treatment. The second and third columns represents fluorescence in MDA-MB-468 cells following treatment with each of the GFP proteins alone (second column; examples of use of CPMs alone) or with each of the GFP-C6.5 fusion proteins (third column; examples of fusion proteins comprising a target-binding region and a CPM region). The fourth and fifth column fluorescence in AU565 cells following treatment with each of the GFP proteins alone (fourth column; examples of use of CPMs alone) or with each of the GFP-C6.5 fusion proteins (fifth column; examples of fusion proteins comprising a target-binding region and a CPM region).

For test [2], the system named is AU565 (Her2^high) cells. The description is as above. The note with it: 1 μM, 2 hours, serum free media.
The subject of test [3] is AU565 (Her2^high) cells. The experiment in a line: Flow cytometry uptake in mixed cell population, concentration series (Example 5). Conditions: 2 h, first set. The procedure: (§1) The media were replaced with serum free media containing indicated concentrations of protein listed below and incubated for 2 h. Cells were washed 3×PBS, trypsinized, fixed with 4% PFA, stained with Her2 Ab-APC for 0.5 hour, washed with PBS and then analyzed by flow cytometry with detection of GFP.
(§2) The tested proteins of the first and second sets of experiments were applied to the mixed cell population for two hours.
(§3) The above data were also plotted in FIGS. 13A-13H to show the median fluorescence value minus background fluorescence of untreated cells (background adjusted fluorescence) (Y-axis) as a function of concentration (X-axis) for each of the tested proteins in this Example. Cellular uptake of the proteins was measured by GFP fluorescence. Her2 expression level was measured by using a Her2 antibody conjugated with allophycocyanin (APC). Gating was applied to the flow cytometry data to identify Her2^1′ versus Her2^high populations. […] The Her2^low profiles (diamond) are indicative of the profile of charged GFP alone. The Her2^high profiles (square) are indicative of the profile of the charged GFP in combination with the target-binding region—C6.5 scFv. The data of sfGFP-C6.5 on the Her2^high cells reflects the profile of the target-binding region (C6.5) by itself.
A general note: In flow cytometry, cells or beads pass a laser one at a time.

The subject of test [4] is MDA-MB-468 (Her2^Low) cells. Described as above. Conditions: 2 h; for Median Fluorescence Values, MDA-MB-468 cells (Her2−) GFP-C6.5 / Median Fluorescence Values, MDA-MB-468 cells (Her2−) C6.5-GFP: first set; for Median Fluorescence Values, Her2− GFP-C6.5: second set. As for the experimental part:
as §1, §2, §3

Test [5] concerns AU565 (Her2^high) cells. Kind of test: Flow cytometry uptake in mixed cell population, time course (Example 6). The note with it: 0.1 μM. As for the experimental part: (§4) The media were replaced with serum free media containing 0.1 μM of protein listed below and incubated for 10 minutes, 30 minutes or 4 hours. Cells were washed 3×PBS, trypsinized, stained with Her2 Antibody-APC for 0.5 hours, washed with PBS and then analyzed by flow cytometry with detection of GFP.

The test system of test [6] is MDA-MB-468 (Her2^Low) cells. The description is as above. The note with it: 0.1 μM. The procedure: as §4
The next test has as its system SKOV-3 cells (Her2^high). The experiment in a line: Cellular uptake by fluorescence microscopy. Conditions: 1 μM, 1 hour. The procedure: These images were taken to assess cellular uptake of these GFP-containing proteins by fluorescence microscopy. The images shown are an overlay of phase contrast and GFP fluorescence images.
In addition, SKOV-3 cells (Her2^high) were treated with 1 μM of proteins for 1 hour, and then images were taken to assess cellular uptake of GFP proteins by fluorescence microscopy (FIG. 11A).

For “+15GFP-C6.5: fusion of +15GFP, (S4G)6 spacer, C6.5 scFv, His6”, the “median fluorescence values, MDA-MB-468 (Her2^Low) GFP-C6.5” value in test [1] was 313,629. Besides, the “median fluorescence values, AU565 (Her2^high) GFP-C6.5” value in the test with AU565 (Her2^high) cells [2] is on record as 413,838. The “Median Fluorescence Values, AUS65 cells (Her2+) GFP-C6.5” value in the test on AU565 (Her2^high) cells [3] (0.03 uM) was 37,663; in the test on AU565 (Her2^high) cells [3] (0.1 uM), 74,673; in the test on AU565 (Her2^high) cells [3] (0.3 uM), 128,374; in the test with AU565 (Her2^high) cells [3] (1 uM), 180,065. The “Median Fluorescence Values, MDA-MB-468 cells (Her2−) GFP-C6.5” value is 13,012 in test [4] (0.03 uM), 36,343 in test [4] (0.1 uM), 76,116 in test [4] (0.3 uM) and 155,734 in test [4] (1 uM). The figures for the “cellular uptake (flow cytometry with detection of GFP), Her2+ GFP-C6.5” value in the test on AU565 (Her2^high) cells [5] (10 min), in the test on AU565 (Her2^high) cells [5] (30 min) and with AU565 (Her2^high) cells [5] (4 h) were 18,606, 35,981 and 148,261, respectively. For the same molecule, the “cellular uptake (flow cytometry with detection of GFP), Her2− GFP-C6.5” value is 10,665 in test [6] (10 min), 22,262 in test [6] (30 min) and 144,923 in test [6] (4 h).

As for “C6.5-+15GFP: fusion of N-terminal C6.5 scFv, (S4G)6 spacer, +15GFP, His6”, in test [1], the “median fluorescence values, MDA-MB-468 (Her2^Low) GFP-C6.5” value is reported as 767,627. For the same molecule, the “median fluorescence values, AU565 (Her2^high) GFP-C6.5” value in the test with AU565 (Her2^high) cells [2] is reported as 2,170,916. In the test on SKOV-3 cells (Her2^high), the “cellular uptake by fluorescence microscopy” value is “internalized efficiently in the cells”. The “Median Fluorescence Values, AUS65 cells (Her2+) C6.5-GFP” value in the test on AU565 (Her2^high) cells [3] (0.03 uM) is 75,821; in the test with AU565 (Her2^high) cells [3] (0.1 uM), 162,337; in the test with AU565 (Her2^high) cells [3] (0.3 uM) it was 305,944; with AU565 (Her2^high) cells [3] (1 uM), 822,351. In addition, the “Median Fluorescence Values, MDA-MB-468 cells (Her2−) C6.5-GFP” value is 13,355 in test [4] (0.03 uM), 36,070 in test [4] (0.1 uM), 82,571 in test [4] (0.3 uM) and 306,260 in test [4] (1 uM). Also, the “cellular uptake (flow cytometry with detection of GFP), Her2+ C6.5-GFP” value in the test with AU565 (Her2^high) cells [5] (10 min) was 37,044; with AU565 (Her2^high) cells [5] (30 min), 61,007; with AU565 (Her2^high) cells [5] (4 h), 184,844. Also, the entries for the “cellular uptake (flow cytometry with detection of GFP), Her2− C6.5-GFP” value in test [6] (10 min), in test [6] (30 min) and in test [6] (4 h) were 13,517, 17,194 and 96,599, respectively.

As to “sfGFP-C6.5: fusion of superfolder GFP, (S4G)6 spacer, C6.5 anti-Her2 scFv, His6”, the “median fluorescence values, MDA-MB-468 (Her2^Low) GFP-C6.5” value in test [1] is 5,632. The entries for the “Median Fluorescence Values, Her2− GFP-C6.5” value in test [4] (0.03 uM), in test [4] (0.1 uM) and in test [4] (0.3 uM) were 4,460, 4,824 and 4,947, respectively. Also, the “cellular uptake (flow cytometry with detection of GFP), Her2− GFP-C6.5” value was 4,081 in test [6] (10 min), 3,986 in test [6] (30 min) and 4,704 in test [6] (4 h).

B1: +2GFP-C6.5: +2GFP fused to C6.5 scFv; variant a or b not stated (protein)
scFv: QVQLLQSGAELKKPGESLKISCKGSGYSFTSYWIAWVRQMPGKGLEYMGLIYPGDSDTKYSPSFQGQVTISVDKSVSTAYLQWSSLKPSDSAVYFCARHDVGYCSSSNCAKWPEYFQHWGQGTLVTVSSGGGGSGGGGSGGGGSQSVLTQPPSVSAAPGQKVTISCSGSSSNIGNNYVSWYQQLPGTAPKLLIYGHTNRPAGVPDRFSGSKSGTSASLAISGFRSEDEADYYCAAWDDSLSGWVFGGGTKLTVLGGHGHHHHHH
modifications: left off: large carriers; small tags and cut ends
As to B1, the “cellular uptake by fluorescence microscopy” value in the test on SKOV-3 cells (Her2^high) was “bound to SKOV-3 cells through Her2 but did not internalize in the cells”.
